In brackets after ≈: the same amount, converted by molar mass.

Assay [1] deals with aminoacyl-tRNA synthetases (aaRS). Description: aaRS charging and trichloroacetic acid precipitation assay (IC50), Sa enzyme. The format is biochemical. The following applies: aaRS from Sa; 20 min preincubation at 25 C. Here is the method:
(§1) IC50 determinations for the aminoacyl-tRNA synthetases (aaRS) isolated from pathogen or HeLa cells were carried out using a modification of the aaRS charging and trichloroacetic acid precipitation assay described previously (see examples: D. Kern et. al., Biochemie, 61, 1257-1272 (1979) and J. Gilbart et. al. Antimicrobial Agents and Chemotherapy, 37(1), 32-38 (1993)). The aaRS enzymes were prepared via standard cloning and expression methods and partially purified or partially purified from pathogen and HeLa cell extracts. The activity of each aaRS enzyme was standardized as trichloroacetic acid precipitable counts (cpm) obtained at 10 minutes reaction time at Km concentrations of substrates. For practical purposes, the minimal acceptable value is approximately 2000 cpm per 10 minute reaction.
(§2) Preincubations for IC50 determinations were initiated by incubating partially purified aaRS extracts in 50 mM HEPES (pH 7.5), 0.1 mM EDTA, 0.05 mg/ml bovine serum albumin, 10 mM dithiothreitol and 2.5% dimethyl sulfoxide with and without test compound (e.g. compound of the invention (preferably a compound of Formula I)) in a final volume of 20 microliters in a microtiter plate for 20 minutes at 25 C. Test compounds were typically present as serial dilutions in concentration ranges of 0.35 nM to 35 μM. Test compound solutions were prepared by dissolving test compound in 100% dimethyl sulfoxide and diluting to the final concentration with 50 mM HEPES, pH 7.5. IC50 determinations were typically performed in duplicate with each experiment containing 4-8 concentrations of inhibitor along with two no inhibitor controls.
(§3) IC50 incubations were initiated by supplementing the preincubation mixture to a final assay concentration of 10 mM MgCl2, 30 mM KCl, 10 mM KF, 50 mM HEPES (pH 7.5), 20 μM-500 mM ATP, 2-20 μM [^3H] amino acid, and 90-180 μM crude tRNA in a final volume of 35 microliters. The reaction was incubated at 25° C. for 5-20 minutes. At specified time points a 15 microliter aliquot was removed and added to a well of a Millipore filtration plate (Multiscreen-FB, MAFB NOB 10) containing 100 microliters of cold 5% (wt/vol) trichloroacetic acid. Trichloroacetic acid precipitable material was collected by filtration on Millipore Multiscreen filtration station, washed twice with cold 5% trichloroacetic acid, twice with water, and dried. Plates were typically allowed to air dry for several hours or they were baked at 50° C. in a vacuum oven for 30 minutes. The radioactivity on the dried plates was quantitated by the addition of Packard Microscint-20 to the wells and counting with a Packard TopCount scintillation counter.
(§4) Inhibitor activity was typically reported as a percentage of the control aaRS activity. The IC50 value was determined by plotting per cent activity versus compound concentration in the assay and identifying the concentration at which 50% of the activity was remaining.

Assay [2] has the same target. In words: aaRS charging and trichloroacetic acid precipitation assay (IC50), Ef enzyme. The format is biochemical. The note with it: aaRS from Ef; 20 min preincubation at 25 C. Here is the method: as §1, §2, §3, §4
Assay [3] concerns Sa. In words: Whole cell antimicrobial screen (MIC), Sa. The format is cell-based. The note with it: overnight incubation, 2-fold dilutions, read-out: MIC (μg/mL) Sa. Here is the method: (§5) Compounds were tested for antimicrobial activity against a panel of organisms according to standard procedures described by the National Committee for Clinical Laboratory Standards (NCCLS document M7-A3, Vol. 13, No. 25, 1993/NCCLS document M27-P, Vol. 12, No. 25, 1992). Compounds were dissolved in 100% DMSO and were diluted to the final reaction concentration (0.1 μg/ml-500 μg/ml) in microbial growth media. In all cases the final concentration of DMSO incubated with cells is less than or equal to 1%. For minimum inhibitory concentration (MIC) calculations, 2-fold dilutions of compounds were added to wells of a microtiter plate containing 1×10^5 bacteria or fungal cells in a final volume of 200 lambda of an appropriate media (Mueller-Hinton Broth; Haemophilus Test Media; Mueller-Hinton Broth+5% Sheep Blood; or […]). Plates were incubated overnight at an appropriate temperature (30° C.-37° C.) and optical densities (measure of cell growth) were measured using a commercial plate reader. The MIC value is defined as the lowest compound concentration inhibiting growth of the test organism.

Assay [4] has as its system Efs. Description: Whole cell antimicrobial screen (MIC), Efs. The note with it: overnight incubation, 2-fold dilutions, read-out: MIC (μg/mL) Efs. The format is cell-based. Here is the method:
as §5

For assay [5], the system named is Efm. Description: Whole cell antimicrobial screen (MIC), Efm. The following applies: overnight incubation, 2-fold dilutions, read-out: MIC (μg/mL) Efm. The format is cell-based. Here is the method:
as §5

The term IC50 denotes the point on the concentration scale where inhibition reaches its midpoint. Lower therefore signals greater potency. Turning to `Clc1ccc(COc2ccccc2OCc2nc3ccccc3[nH]2)c(Cl)c1` [126,419], the IC50 in assay [1] and in assay [2] was below 500 nM each time. Also, the MIC in assay [3], in assay [4] and in assay [5] was above 100 µg/mL in each case.

For `O=C(NC(CO)C(=O)O)c1ccc(OCc2ccc(Cl)cc2Cl)c(OCc2nc3ccccc3[nH]2)c1` (stereo not shown) [130,968], the IC50 in assay [1] and in assay [2] was below 500 nM each time. The MIC in assay [3], in assay [4] and in assay [5] was above 100 µg/mL each time.

As to `O=C(NC(CO)C(=O)O)c1ccc(OCc2nc3ccccc3[nH]2)c(OCc2ccc(Cl)cc2Cl)c1` (stereo not shown) [130,970], the IC50 in assay [1] and in assay [2] was below 500 nM in each case. Also, the results for the MIC in assay [3], in assay [4] and in assay [5] were above 100 µg/mL, below 100 µg/mL and 100 µg/mL (≈ 189 µM), respectively.

Consider `CS(=O)(=O)NC(=O)c1ccc(OCc2nc3ccccc3[nH]2)c(OCc2ccc(Cl)cc2Cl)c1` [130,971], for which the IC50 in assay [1] and in assay [2] was below 500 nM in each case. Moreover, the MIC in assay [3] is below 100 µg/mL; in assay [4] it was 100 µg/mL (≈ 192 µM); in assay [5] it was 100 µg/mL (≈ 192 µM).

For `O=C(O)Cc1ccc(OCc2nc3ccccc3[nH]2)c(OCc2ccc(Cl)cc2Cl)c1` [130,976], the IC50 in assay [1] and in assay [2] was below 500 nM in each case. In addition, the MIC in assay [3], in assay [4] and in assay [5] was below 10 µg/mL in each case.

These data come from patent US6348482B1, “Catechols as antimicrobial agents” (Merck & Co., Inc., priority 1999, dated 2002).
